Results on 1 compound are retold here after patent US8212016B2, “NPC1L1 orthologues” (Schering Corporation, priority 2006, dated 2012).

Structures are written as SMILES. pKd, pKi: −log10 of the molar value. Where two headings read alike, the source gives them in different places.

For orientation: pKi means the negative decadic logarithm of the Ki, by convention in mol/L. A word on the pKd: it is the Kd on a negative log10 scale, so that one unit is a factor of ten. Low readings indicate a high Kd, high ones a low Kd.

Assay [1] has as its target canine NPC1L1 (Canis lupus familiaris, UniProt A0MJA4). The assay can be described thus: Fluorescence NPC1L1 binding assay, HEK-293 cells, BODIPY-labeled compound 1. How it is done:
(§1) Cell Culture and Membrane Preparation. Each plasmid pCR3.1 harboring NPC1L1 was prepared using standard molecular biology protocols. Stable cell lines expressing human, rhesus monkey, mouse, rat, hamster, canine or rabbit NPC1L1 were generated using Lipofectamine 2000 transfection reagent in HEK-293 cells according to the manufacturer's protocol. Cells were maintained in DMEM supplemented with 10% FBS, 100 U/ml pen/strep, and 500 μg/ml geneticin at 37° C., 5% CO2. All cell culture reagents were obtained from Invitrogen Life Technologies, (Carlsbad, Calif.). Cell membranes were prepared by lysing cells in 5 mM HEPES with protease inhibitors (Complete™ Protease Inhibitor Cocktail Tablets; Roche Diagnostics Corp., Indianapolis Ind.) for 15 min at 4° C. A membrane pellet was obtained by centrifuging the cell lysates at 12,000×g for 25 min. The membranes were resuspended in 5 mM HEPES with protease inhibitors and triturated with a 21G needle.
(§2) Fluorescence. Cells were plated into 384-well black/clear plates (BD Biosciences, Bedford Mass.) for binding experiments the following day. The media was aspirated. […] Media (20 μl) containing the indicated concentration of compound was then added to the wells. […] The binding reaction was allowed to proceed for 4 hours at 37° C. Subsequently the media was aspirated and the cells washed once with PBS.

The target in assay [2] is T1, human NPC1L1 (Homo sapiens, UniProt Q9UHC9, T1073A).
T1 construct: expressed in transfected cells
T1 sequence (Q9UHC9 22-1332 isoform Q9UHC9-2 T1046A): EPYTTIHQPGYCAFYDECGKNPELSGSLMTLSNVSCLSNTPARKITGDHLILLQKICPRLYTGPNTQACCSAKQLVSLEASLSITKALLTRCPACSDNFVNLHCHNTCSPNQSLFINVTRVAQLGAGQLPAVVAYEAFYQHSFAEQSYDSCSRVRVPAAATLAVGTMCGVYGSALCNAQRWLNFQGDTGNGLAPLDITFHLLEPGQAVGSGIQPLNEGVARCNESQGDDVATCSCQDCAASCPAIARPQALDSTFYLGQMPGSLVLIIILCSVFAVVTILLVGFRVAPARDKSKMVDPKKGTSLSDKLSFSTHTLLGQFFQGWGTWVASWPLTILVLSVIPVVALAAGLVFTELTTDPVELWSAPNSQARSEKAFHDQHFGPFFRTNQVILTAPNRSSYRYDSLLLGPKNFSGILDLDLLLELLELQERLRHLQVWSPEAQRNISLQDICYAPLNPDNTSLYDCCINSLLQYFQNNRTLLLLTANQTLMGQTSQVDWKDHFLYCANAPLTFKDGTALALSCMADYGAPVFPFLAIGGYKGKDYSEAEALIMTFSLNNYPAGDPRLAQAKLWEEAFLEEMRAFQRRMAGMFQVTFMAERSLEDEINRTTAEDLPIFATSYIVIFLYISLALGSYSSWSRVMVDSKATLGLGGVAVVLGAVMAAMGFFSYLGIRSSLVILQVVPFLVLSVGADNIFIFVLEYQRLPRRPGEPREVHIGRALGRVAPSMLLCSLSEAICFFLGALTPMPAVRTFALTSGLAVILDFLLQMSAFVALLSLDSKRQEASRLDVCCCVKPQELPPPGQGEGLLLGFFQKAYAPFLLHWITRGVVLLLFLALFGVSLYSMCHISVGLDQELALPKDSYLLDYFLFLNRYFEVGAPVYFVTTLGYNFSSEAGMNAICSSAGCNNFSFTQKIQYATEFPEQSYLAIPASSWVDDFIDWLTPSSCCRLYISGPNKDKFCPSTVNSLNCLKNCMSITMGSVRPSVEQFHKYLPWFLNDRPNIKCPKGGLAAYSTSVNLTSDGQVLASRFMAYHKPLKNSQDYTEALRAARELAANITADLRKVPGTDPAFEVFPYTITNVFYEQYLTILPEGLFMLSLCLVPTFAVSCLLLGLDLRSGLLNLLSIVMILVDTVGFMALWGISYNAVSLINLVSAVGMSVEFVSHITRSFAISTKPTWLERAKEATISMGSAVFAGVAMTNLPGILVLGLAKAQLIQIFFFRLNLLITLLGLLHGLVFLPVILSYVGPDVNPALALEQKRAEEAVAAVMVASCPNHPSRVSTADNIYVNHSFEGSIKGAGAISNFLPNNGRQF
The description is as above. As to conditions: Human NPC1L1, competition with compound 1; read-out: Ki. How it is done:
as §1, §2

The target in assay [3] is rabbit NPC1L1 (Oryctolagus cuniculus, UniProt A0MJA7). The assay is described as above. How it is done:
as §1, §2

The target in assay [4] is T1, human NPC1L1. The assay can be described thus: Radioligand binding of [3H]-glucuronidated ezetimibe (compound 4) to cell membranes. Here is the method: Cell Culture and Membrane Preparation. […] Cells were maintained in DMEM supplemented with 10% FBS, 100 U/ml pen/strep, and 500 μg/ml geneticin at 37° C., 5% CO2. All cell culture reagents were obtained from Invitrogen Life Technologies, (Carlsbad, Calif.). Cell membranes were prepared by lysing cells in 5 mM HEPES with protease inhibitors (Complete™ Protease Inhibitor Cocktail Tablets; Roche Diagnostics Corp., Indianapolis Ind.) for 15 min at 4° C. A membrane pellet was obtained by centrifuging the cell lysates at 12,000×g for 25 min. […] Radioligand. […] Natl. Acad. Sci. […] Reactions were performed in binding buffer (5 mM HEPES, 5.5 mM glucose, 117 mM NaCl and 5.4 mM KCl, pH 7.4). Cell membranes (50 μg in 20 μl) were added to each well. […] Binding reactions were incubated for 2 hours at 37° C. Samples were transferred to Unifilter-96 GF/C plates (Perkin Elmer, Wellesley Mass.) and filtered using a Brandel harvester (Gaithersburg Md.). […] Liquid scintillant (50 μl; Microscint-20, Perkin Elmer, Wellesley Mass.) was added and the bound radioactivity was measured using a microplate scintillation counter.

Assay [5] addresses T2, mouse NPC1L1 (Mus musculus, UniProt Q6T3U4, N476K).
T2 construct: expressed in transfected cells
The assay is described as follows: Fluorescence NPC1L1 binding assay, HEK-293 cells, fluorescent compound 2 as ligand. Here is the method: as §1, §2
In an effort to show binding to mouse NPC1L1, several related ezetimibe analogs were examined as possible alternatives to fluorescently-labeled (BODIPY) ezetimibe glucuronide (compound 1) in the binding assay. Compound 2, which is a fluorescently labeled synthetic precursor for fluorescently-labeled (BODIPY) ezetimibe glucuronide (compound 1; Burnett et al., Bioorganic and Medicinal Chemistry Letters 12:315-318 (2002)), was identified as a viable option for detection of mouse NPC1L1 binding. Compound 2 contains a methyl ester substitution for the carboxylic acid on the glucuronide portion of the molecule (compound structures shown in FIG. 4A).

In the case of `O=C(O)[C@H]1O[C@@H](Oc2ccc([C@@H]3[C@@H](CC[C@H](O)c4ccc(F)cc4)C(=O)N3c3ccc(F)cc3)cc2)[C@H](O)[C@@H](O)[C@@H]1O` [compound 4, glucuronidated ezetimibe], the negative-log Ki (pKi) is 6.72 in assay [1] (Canine NPC1L1, competition with compound 1, read-out: Ki); 6.72 in assay [1] (Table 3, Dog, read-out: Ki Dog NPC1L1); 6.18 in assay [2]; 6.08 in assay [3] (Rabbit NPC1L1, competition with compound 1, read-out: Ki); 6.08 in assay [3] (Table 3, Rabbit, read-out: Ki Rabbit NPC1L1); 5.05 in assay [5] (Mouse NPC1L1, competition with compound 2, read-out: Ki). In addition, in assay [5] (Table 3, Mouse, read-out: Ki Mouse NPC1L1), the negative-log Ki (pKi) was 5.27. Moreover, the “difference in affinity versus ezetimibe (compound 3)” value in assay [3] (rabbit NPC1L1) is “less than 3 fold”. Moreover, the pKd in assay [4] is 6.69.
